Assay [1] deals with Echinochloa esculenta. Briefly: Herbicidal activity against Echinochloa esculenta assessed as inhibition of seed germination at 1 nM after 5 days relative to control. The note with it: 120 h. The format is functional.
The subject of assay [2] is Echinochloa esculenta. As to the kind of experiment: Herbicidal activity against Echinochloa esculenta assessed as inhibition of seed germination at 10 nM after 5 days relative to control. It counts as functional. The note with it: 120 h.
Assay [3] concerns Echinochloa esculenta. As to the kind of experiment: Herbicidal activity against Echinochloa esculenta assessed as inhibition of seed germination at 100 nM after 5 days relative to control. The format is functional. The note with it: 120 h.
For assay [4], the system named is Echinochloa esculenta. As to the kind of experiment: Herbicidal activity against Echinochloa esculenta assessed as inhibition of seed germination at 1000 nM after 5 days relative to control. The format is functional. The settings on record: 120 h.
Assay [5] relates to Oryza sativa. Briefly: Herbicidal activity against Oryza sativa (rice) assessed as inhibition of seed germination at > 90 nM after 7 days relative to control. It counts as functional, organism-based. The settings on record: 168 h.
Assay [6] relates to Oryza sativa. As to the kind of experiment: Herbicidal activity against Oryza sativa (rice) assessed as inhibition of seed germination after 7 days relative to control. It counts as functional, organism-based. The note with it: 168 h.
Assay [7] has as its system Echinochloa esculenta. Briefly: Herbicidal activity against Echinochloa esculenta assessed as inhibition of seed germination after 5 days relative to control. The settings on record: 120 h. It counts as functional, organism-based.
Assay [8] concerns Echinochloa esculenta. Briefly: Herbicidal activity against Echinochloa esculenta assessed as inhibition of seed germination at 0.1 nM after 5 days relative to control. The format is functional. The settings on record: 120 h.

SMILES strings stand for the structures.

One may read the inhibition as the share of the control response that was lost under treatment. In the case of `CC(C)C(O)C1CCCN(Cc2ccccc2)C1=O` (mixture of isomers), the inhibition at 0.001 µM in assay [1] is under 49%. For the same molecule, the inhibition at 0.01 µM in assay [2] is under 49%. For the same molecule, in assay [3], the inhibition at 0.1 µM was under 49%. Besides, the inhibition at 1 µM in assay [4] was under 49%.
Take `CC(C)CCC(O)C1CCCN(Cc2ccccc2)C1=O` (mixture of isomers): the inhibition at 0.001 µM in assay [1] is under 49%. Besides, the inhibition at 0.01 µM in assay [2] was under 49%. In addition, the inhibition at 0.1 µM in assay [3] came out at 50%. The inhibition at 1 µM in assay [4] was 50%.
For `O=C1C(C(O)C2CCCCC2)CCCN1Cc1ccccc1` (mixture of isomers), the inhibition at 0.001 µM in assay [1] was under 49%. Besides, in assay [2], the inhibition at 0.01 µM is under 49%. Besides, in assay [3], the inhibition at 0.1 µM is under 49%. In addition, the inhibition at 1 µM in assay [4] is under 49%.
In the case of `O=C1C(C(O)c2ccccc2)CCCN1Cc1ccccc1` (mixture of isomers), the inhibition at 0.001 µM in assay [1] is under 49%. Further, the inhibition at 0.01 µM in assay [2] was under 49%. Further, in assay [3], the inhibition at 0.1 µM was under 49%. Further, the inhibition at 1 µM in assay [4] was over 90%.
Turning to `O=C1C(C(O)C/C=C/c2ccccc2)CCCN1Cc1ccccc1` (mixture of isomers), the inhibition at 0.001 µM in assay [1] was under 49%. For the same molecule, the inhibition at 0.01 µM in assay [2] was under 49%. Further, in assay [3], the inhibition at 0.1 µM stood at 50%. Besides, in assay [4], the inhibition at 1 µM was 50%.
`Cc1ccccc1C(O)C1CCCN(Cc2ccccc2)C1=O` (mixture of isomers): the inhibition at 0.001 µM in assay [1] is under 49%. Further, in assay [2], the inhibition at 0.01 µM is under 49%. In addition, in assay [3], the inhibition at 0.1 µM was under 49%. Moreover, in assay [4], the inhibition at 1 µM is over 90%.
Turning to `Cc1cccc(C(O)C2CCCN(Cc3ccccc3)C2=O)c1` (mixture of isomers), the inhibition at 0.001 µM in assay [1] is under 49%. In addition, in assay [2], the inhibition at 0.01 µM is under 49%. For the same molecule, the inhibition at 0.1 µM in assay [3] was under 49%. Further, the inhibition at 1 µM in assay [4] is over 90%.
The IC50 is the point on the concentration scale where inhibition reaches its midpoint. `O=C1C(C(O)c2ccc3c(c2)OCCO3)CCCN1Cc1ccccc1` (mixture of isomers): the figures for the IC50 in assay [5], in assay [6] and in assay [7] were 10 nM, over 90 nM and 8.8 nM, respectively. Moreover, in assay [1], the inhibition at 0.001 µM is under 49%. Also, in assay [2], the inhibition at 0.01 µM was over 90%. For the same molecule, in assay [3], the inhibition at 0.1 µM is over 90%. In assay [4], the inhibition at 1 µM was over 90%.
As for `O=C1C(C(O)c2ccc3c(c2)OCCO3)CCCN1CC=C(c1ccccc1)c1ccccc1` (mixture of isomers), the inhibition at 0.0001 µM in assay [8] was under 49%. The inhibition at 0.001 µM in assay [1] is under 49%. Further, the inhibition at 0.01 µM in assay [2] was over 90%. Moreover, the inhibition at 0.1 µM in assay [3] was over 90%. Moreover, the inhibition at 1 µM in assay [4] is over 90%.
For `O=C1C(C(O)c2ccc3c(c2)OCCO3)CCCN1C/C=C/c1ccccc1` (mixture of isomers), the IC50 in assay [5] is 25 nM; in assay [6] it was over 90 nM; in assay [7], 1.4 nM. Also, the inhibition at 0.0001 µM in assay [8] is under 49%. The inhibition at 0.001 µM in assay [1] was under 49%. Further, the inhibition at 0.01 µM in assay [2] is over 90%. Further, the inhibition at 0.1 µM in assay [3] is over 90%. Moreover, the inhibition at 1 µM in assay [4] was over 90%.
Take `O=C1C(C(O)c2ccc3c(c2)OCCO3)CCCN1/C=C/c1ccccc1` (mixture of isomers): the inhibition at 0.0001 µM in assay [8] was under 49%. For the same molecule, the inhibition at 0.001 µM in assay [1] is under 49%. In addition, the inhibition at 0.01 µM in assay [2] worked out at 50%. Further, the inhibition at 0.1 µM in assay [3] is over 90%. The inhibition at 1 µM in assay [4] is over 90%.
Turning to `O=C1C(C(O)c2ccc3c(c2)OCCO3)CCCN1c1ccccc1` (mixture of isomers), the inhibition at 0.0001 µM in assay [8] is under 49%. Besides, in assay [1], the inhibition at 0.001 µM is under 49%. Besides, the inhibition at 0.01 µM in assay [2] was under 49%. Also, the inhibition at 0.1 µM in assay [3] was under 49%. Moreover, the inhibition at 1 µM in assay [4] was under 49%.
Consider `C=CCN1CCCC(C(O)c2ccc3c(c2)OCCO3)C1=O` (mixture of isomers), for which the inhibition at 0.0001 µM in assay [8] was under 49%. The inhibition at 0.001 µM in assay [1] is under 49%. Further, the inhibition at 0.01 µM in assay [2] is under 49%. In assay [3], the inhibition at 0.1 µM is under 49%. Besides, in assay [4], the inhibition at 1 µM is 50%.
As to `O=C1NCCCC1C(O)c1ccc2c(c1)OCCO2` (mixture of isomers), the inhibition at 0.0001 µM in assay [8] is under 49%. Moreover, the inhibition at 0.001 µM in assay [1] was under 49%. Moreover, in assay [2], the inhibition at 0.01 µM is under 49%. The inhibition at 0.1 µM in assay [3] is under 49%. In assay [4], the inhibition at 1 µM is over 90%.
Take `O=C1[C@H]([C@@H](O)c2ccc3c(c2)OCCO3)CCCN1C/C=C/c1ccccc1` (relative stereo): the concentration for half-maximal inhibition (IC50) in assay [6] and in assay [7] was over 1000 nM in each case.
Turning to `O=C1[C@@H]([C@@H](O)c2ccc3c(c2)OCCO3)CCCN1C/C=C/c1ccccc1` (relative stereo), the figures for the IC50 in assay [6] and in assay [7] were 8.1 nM and 0.8 nM, respectively.
Regarding `O=C1[C@H]([C@@H](O)c2ccc3c(c2)OCCO3)CCCN1Cc1ccccc1` (relative stereo), the IC50 in assay [6] and in assay [7] was over 1000 nM in each case.
For `O=C1[C@@H]([C@@H](O)c2ccc3c(c2)OCCO3)CCCN1Cc1ccccc1` (relative stereo), the concentration for half-maximal inhibition (IC50) is 30 nM in assay [5], over 90 nM in assay [6] and 4.5 nM in assay [7].

The values above are taken from ChEMBL document CHEMBL3046544, “Inhibitory Activity of N-Substituted-2-piperidones with a 1, 4-Benzodioxan Ring on Germination of Barnyardgrass” (J Pestic Sci, 2001).
